Source: patent publication US20090075887A1, “Treatment with Kallikrein Inhibitors” (GENZYME CORPORATION, priority 2007, published 2009)
Bridges are numbered along the chain shown (N, C = ends). Where no end group is shown, it is not given here.

Biological target: plasma kallikrein (Homo sapiens, UniProt P03952)
Experiment: Inhibition constant for plasma kallikrein
Type: biochemical
Conditions: plasma kallikrein (PK); value used for the dose calculation

Chain of plasma kallikrein (P03952 20-638): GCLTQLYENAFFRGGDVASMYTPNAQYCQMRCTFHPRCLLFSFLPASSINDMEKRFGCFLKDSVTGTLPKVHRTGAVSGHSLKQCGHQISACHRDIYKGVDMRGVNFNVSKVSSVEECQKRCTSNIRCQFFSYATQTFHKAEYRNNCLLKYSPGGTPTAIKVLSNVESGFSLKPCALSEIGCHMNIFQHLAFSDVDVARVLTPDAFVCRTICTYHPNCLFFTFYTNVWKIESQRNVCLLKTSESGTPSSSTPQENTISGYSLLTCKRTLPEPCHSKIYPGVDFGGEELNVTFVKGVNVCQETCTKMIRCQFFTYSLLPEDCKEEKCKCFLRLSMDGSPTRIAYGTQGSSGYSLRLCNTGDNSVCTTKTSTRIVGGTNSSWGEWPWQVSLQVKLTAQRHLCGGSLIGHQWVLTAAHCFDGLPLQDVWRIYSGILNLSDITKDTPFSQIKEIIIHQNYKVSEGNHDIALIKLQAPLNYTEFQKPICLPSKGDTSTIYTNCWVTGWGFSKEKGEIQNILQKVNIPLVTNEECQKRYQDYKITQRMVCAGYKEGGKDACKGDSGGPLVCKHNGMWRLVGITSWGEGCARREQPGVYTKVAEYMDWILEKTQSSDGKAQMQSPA

Ki: 0.044 nM
Sequence: EAMHSFCAFKADDGPCRAAHPRWFFNIFTRQCEEFIYGGCEGNQNRFESLEECKKMCTRD (disulfide 7-57, 16-40, 32-53) [DX88]
